The results in this text go back to ChEMBL document CHEMBL5465560, “Selectivity Literature for EUbOPEN Chemogenomic Library” (2024).

The test system of experiment [1] is Leucine-rich repeat serine/threonine-protein kinase 2 (Homo sapiens), Q5S007 [G2019S]. Description: Selectivity interaction (Adapta Assay) EUB0001632a LRRK2. The conditions noted are these: at 10 µM.
The target of experiment [2] is T1, Ephrin type-A receptor 3 (Homo sapiens) (UniProt P29320).
T1 sequence (whole entry): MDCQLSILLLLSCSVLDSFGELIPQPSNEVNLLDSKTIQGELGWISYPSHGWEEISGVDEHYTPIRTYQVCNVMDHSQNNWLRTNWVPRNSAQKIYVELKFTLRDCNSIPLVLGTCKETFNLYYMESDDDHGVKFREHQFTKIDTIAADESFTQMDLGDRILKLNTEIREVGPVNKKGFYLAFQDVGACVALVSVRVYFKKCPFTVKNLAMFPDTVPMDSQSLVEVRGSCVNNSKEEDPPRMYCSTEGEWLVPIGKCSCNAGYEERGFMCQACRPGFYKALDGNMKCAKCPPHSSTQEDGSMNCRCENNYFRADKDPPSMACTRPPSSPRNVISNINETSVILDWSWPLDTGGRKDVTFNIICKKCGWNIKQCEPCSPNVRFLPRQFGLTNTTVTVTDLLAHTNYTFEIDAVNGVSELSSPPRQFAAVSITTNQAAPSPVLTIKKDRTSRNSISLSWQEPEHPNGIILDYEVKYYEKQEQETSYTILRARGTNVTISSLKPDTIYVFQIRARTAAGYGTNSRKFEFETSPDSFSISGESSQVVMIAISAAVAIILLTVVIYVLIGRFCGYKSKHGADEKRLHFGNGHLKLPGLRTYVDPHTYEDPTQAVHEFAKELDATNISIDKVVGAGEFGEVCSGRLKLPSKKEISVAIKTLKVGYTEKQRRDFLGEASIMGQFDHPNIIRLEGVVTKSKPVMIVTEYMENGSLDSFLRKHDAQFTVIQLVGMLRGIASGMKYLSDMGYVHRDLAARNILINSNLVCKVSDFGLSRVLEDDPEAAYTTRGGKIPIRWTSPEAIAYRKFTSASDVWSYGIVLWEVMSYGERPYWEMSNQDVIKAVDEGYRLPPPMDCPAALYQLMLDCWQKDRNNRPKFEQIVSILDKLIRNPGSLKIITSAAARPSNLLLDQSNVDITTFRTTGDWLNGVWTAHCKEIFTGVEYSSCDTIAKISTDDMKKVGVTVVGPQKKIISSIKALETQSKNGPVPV
Description: Selectivity interaction (SelectScreen profiling (Invitrogen)) EUB0000607a EPHA3. The conditions noted are these: at 2 µM.

Experiment [3] deals with Receptor tyrosine-protein kinase erbB-4 (Homo sapiens, UniProt Q15303). Particulars: at 10 µM.
The target of experiment [4] is T2, Mitogen-activated protein kinase kinase kinase 19 (Homo sapiens) (UniProt Q56UN5).
T2 sequence (whole entry): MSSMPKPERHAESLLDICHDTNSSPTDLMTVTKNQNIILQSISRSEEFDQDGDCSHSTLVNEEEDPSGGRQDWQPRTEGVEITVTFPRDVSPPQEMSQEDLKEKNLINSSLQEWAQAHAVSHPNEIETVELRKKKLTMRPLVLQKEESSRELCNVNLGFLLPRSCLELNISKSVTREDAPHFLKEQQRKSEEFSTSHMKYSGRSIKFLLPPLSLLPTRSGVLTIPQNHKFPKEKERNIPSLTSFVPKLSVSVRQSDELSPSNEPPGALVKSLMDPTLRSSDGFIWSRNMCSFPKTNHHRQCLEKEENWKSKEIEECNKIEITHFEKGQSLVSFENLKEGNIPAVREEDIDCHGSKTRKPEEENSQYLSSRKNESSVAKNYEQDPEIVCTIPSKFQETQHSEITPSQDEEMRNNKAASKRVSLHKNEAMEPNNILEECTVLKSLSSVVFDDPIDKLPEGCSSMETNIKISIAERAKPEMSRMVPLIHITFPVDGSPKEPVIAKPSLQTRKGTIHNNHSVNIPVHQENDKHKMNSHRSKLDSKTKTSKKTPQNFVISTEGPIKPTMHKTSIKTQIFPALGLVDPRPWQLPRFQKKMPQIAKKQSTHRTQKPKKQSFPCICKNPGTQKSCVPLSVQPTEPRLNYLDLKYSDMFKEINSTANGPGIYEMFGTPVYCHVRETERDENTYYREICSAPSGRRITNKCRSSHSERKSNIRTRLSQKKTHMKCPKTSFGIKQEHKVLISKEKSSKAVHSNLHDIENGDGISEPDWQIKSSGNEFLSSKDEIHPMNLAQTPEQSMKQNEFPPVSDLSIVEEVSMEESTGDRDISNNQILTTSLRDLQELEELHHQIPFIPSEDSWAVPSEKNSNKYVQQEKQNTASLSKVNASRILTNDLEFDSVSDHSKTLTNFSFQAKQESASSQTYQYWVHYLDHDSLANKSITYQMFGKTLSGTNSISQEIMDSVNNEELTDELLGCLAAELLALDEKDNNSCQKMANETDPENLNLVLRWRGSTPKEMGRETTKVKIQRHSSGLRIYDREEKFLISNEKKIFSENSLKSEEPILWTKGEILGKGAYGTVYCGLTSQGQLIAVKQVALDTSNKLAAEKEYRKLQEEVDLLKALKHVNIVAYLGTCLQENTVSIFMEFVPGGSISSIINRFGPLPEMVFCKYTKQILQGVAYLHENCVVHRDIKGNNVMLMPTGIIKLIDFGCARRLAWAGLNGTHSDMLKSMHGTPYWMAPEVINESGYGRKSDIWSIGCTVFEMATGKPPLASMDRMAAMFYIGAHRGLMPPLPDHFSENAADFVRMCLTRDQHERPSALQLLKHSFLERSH
The experiment is described as follows: Selectivity interaction (KinomeScan (DiscoverX)) EUB0000655a MAP3K19. The conditions noted are these: at 10 µM.

Experiment [5] has as its target Activated CDC42 kinase 1 (Homo sapiens, UniProt Q07912). Description: Selectivity interaction (KinomeScan (DiscoverX)) EUB0000655a TNK2. Particulars: at 10 µM.

Activated CDC42 kinase 1, sequence (Q07912 whole entry, looked up): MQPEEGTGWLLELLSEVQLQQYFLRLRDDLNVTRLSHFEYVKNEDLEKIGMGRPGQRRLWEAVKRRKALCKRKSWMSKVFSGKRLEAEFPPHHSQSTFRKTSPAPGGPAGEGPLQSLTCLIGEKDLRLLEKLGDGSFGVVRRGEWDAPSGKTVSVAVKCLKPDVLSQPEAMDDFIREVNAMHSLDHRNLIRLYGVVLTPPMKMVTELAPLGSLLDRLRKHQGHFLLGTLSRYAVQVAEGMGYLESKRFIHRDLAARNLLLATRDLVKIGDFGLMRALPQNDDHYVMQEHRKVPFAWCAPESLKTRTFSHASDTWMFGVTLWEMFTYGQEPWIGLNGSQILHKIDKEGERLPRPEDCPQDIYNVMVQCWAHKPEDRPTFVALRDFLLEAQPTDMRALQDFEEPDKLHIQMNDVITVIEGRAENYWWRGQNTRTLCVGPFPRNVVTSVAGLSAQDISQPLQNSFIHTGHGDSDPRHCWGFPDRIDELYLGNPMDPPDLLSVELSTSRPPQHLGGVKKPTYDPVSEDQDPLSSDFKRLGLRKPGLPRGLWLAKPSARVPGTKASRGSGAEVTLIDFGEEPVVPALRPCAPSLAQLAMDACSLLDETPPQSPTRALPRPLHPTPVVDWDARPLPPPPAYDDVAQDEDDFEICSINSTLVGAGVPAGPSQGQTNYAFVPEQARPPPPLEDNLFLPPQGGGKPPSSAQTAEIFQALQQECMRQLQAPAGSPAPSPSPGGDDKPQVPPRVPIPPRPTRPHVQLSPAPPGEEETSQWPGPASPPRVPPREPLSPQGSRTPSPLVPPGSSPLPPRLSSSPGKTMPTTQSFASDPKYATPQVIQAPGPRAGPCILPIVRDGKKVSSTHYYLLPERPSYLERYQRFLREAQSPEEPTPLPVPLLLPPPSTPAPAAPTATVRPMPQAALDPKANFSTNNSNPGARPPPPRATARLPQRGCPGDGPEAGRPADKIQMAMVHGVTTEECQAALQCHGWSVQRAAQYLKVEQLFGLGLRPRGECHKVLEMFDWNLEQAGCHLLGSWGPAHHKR
Leucine-rich repeat serine/threonine-protein kinase 2 (Homo sapiens), Q5S007 [G2019S], sequence (Q5S007 whole entry G2019S): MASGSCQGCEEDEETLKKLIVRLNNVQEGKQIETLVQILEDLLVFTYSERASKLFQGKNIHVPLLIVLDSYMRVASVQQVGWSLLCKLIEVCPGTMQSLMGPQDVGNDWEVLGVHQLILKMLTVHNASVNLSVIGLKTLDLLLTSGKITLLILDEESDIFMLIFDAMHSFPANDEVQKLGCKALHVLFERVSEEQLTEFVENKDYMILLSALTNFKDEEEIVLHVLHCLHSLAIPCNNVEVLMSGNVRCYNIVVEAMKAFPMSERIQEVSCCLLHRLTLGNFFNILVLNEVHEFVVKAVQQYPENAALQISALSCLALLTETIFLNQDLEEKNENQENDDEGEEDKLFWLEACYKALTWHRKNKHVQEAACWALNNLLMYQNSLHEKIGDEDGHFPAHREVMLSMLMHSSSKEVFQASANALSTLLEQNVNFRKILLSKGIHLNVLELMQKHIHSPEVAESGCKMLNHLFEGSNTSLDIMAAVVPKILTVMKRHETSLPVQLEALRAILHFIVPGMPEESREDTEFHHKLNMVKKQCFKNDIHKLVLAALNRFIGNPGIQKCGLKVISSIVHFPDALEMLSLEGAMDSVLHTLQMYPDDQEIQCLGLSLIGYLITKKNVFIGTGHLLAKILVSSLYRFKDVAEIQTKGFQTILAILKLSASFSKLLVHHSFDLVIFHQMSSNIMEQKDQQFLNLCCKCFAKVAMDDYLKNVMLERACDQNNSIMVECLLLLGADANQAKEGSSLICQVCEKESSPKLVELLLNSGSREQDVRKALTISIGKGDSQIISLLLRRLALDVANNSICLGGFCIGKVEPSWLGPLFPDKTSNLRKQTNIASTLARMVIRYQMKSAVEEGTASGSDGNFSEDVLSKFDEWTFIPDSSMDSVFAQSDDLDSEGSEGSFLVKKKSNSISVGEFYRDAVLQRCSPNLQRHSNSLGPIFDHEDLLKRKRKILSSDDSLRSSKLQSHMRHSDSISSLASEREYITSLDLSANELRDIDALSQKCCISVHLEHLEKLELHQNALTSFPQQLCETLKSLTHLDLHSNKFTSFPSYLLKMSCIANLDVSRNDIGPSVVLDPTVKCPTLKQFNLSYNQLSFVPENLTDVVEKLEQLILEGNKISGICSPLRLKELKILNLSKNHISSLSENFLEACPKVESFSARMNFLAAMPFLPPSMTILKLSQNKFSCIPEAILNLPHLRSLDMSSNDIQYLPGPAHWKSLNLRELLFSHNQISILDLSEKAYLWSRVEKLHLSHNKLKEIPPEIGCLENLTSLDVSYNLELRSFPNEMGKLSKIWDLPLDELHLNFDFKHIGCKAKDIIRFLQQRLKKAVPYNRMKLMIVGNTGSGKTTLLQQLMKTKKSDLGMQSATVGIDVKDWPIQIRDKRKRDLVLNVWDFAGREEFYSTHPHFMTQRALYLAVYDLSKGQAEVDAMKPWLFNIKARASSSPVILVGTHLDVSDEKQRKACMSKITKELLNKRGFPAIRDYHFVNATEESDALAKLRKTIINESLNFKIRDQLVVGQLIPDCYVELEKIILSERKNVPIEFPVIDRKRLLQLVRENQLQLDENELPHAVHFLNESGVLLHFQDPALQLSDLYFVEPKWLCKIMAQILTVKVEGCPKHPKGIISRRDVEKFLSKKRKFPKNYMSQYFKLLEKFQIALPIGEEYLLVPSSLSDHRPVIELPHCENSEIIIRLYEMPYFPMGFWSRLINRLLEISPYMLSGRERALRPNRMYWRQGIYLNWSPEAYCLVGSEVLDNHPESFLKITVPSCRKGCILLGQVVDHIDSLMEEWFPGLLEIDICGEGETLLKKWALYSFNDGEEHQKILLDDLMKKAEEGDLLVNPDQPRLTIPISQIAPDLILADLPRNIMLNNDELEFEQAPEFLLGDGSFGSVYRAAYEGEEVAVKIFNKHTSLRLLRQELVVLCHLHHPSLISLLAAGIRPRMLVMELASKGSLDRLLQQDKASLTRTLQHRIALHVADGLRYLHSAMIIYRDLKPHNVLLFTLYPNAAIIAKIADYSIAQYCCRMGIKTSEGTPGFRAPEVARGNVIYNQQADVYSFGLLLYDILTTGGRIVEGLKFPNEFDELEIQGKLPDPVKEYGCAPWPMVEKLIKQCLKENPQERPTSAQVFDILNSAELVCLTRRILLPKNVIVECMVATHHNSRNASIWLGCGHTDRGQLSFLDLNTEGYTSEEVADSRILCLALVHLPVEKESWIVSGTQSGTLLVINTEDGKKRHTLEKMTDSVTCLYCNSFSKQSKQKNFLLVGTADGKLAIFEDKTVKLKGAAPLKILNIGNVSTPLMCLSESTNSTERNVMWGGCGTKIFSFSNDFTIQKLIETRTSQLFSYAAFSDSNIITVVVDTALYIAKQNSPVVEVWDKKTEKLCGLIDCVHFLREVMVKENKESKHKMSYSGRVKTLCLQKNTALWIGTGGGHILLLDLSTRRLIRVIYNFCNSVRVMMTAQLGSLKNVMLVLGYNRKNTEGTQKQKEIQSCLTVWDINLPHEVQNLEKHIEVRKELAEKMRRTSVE
Receptor tyrosine-protein kinase erbB-4, sequence (Q15303 whole entry): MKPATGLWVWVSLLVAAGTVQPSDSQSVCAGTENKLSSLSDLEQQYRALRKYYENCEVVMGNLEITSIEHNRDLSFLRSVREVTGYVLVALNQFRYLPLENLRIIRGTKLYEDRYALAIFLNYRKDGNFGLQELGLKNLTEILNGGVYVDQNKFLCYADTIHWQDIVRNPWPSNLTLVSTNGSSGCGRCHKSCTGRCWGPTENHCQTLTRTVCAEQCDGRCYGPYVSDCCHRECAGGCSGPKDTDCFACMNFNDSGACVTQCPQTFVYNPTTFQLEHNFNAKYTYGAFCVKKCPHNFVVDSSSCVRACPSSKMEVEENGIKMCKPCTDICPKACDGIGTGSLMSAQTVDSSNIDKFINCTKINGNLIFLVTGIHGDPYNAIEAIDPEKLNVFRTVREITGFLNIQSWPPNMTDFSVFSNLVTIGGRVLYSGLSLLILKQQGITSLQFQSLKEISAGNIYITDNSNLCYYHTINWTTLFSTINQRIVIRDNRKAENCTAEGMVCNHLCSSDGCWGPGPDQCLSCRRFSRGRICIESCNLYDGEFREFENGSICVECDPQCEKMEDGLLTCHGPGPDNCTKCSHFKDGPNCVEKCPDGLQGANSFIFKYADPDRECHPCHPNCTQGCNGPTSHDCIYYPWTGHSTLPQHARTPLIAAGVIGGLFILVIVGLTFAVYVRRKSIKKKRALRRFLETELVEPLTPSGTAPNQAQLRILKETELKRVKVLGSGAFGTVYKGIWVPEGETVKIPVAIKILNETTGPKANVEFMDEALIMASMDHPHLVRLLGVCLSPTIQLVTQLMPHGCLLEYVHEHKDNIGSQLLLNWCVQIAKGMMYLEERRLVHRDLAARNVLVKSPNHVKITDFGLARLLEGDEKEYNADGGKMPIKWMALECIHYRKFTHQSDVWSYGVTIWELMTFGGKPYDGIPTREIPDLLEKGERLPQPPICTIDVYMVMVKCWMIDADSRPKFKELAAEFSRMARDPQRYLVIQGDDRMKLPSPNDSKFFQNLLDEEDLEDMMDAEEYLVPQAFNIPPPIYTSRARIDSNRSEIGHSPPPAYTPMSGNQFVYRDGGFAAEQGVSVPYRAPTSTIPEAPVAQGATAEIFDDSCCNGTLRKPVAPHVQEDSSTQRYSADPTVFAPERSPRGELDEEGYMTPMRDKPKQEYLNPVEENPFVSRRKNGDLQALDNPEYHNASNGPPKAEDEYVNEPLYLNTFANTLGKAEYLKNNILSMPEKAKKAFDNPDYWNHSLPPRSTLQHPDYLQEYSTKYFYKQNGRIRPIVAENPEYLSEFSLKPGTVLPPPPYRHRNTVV

`Cn1cc(-n2cnc3c(NCc4nc5cc(Cl)c(Cl)cc5[nH]4)nc(N4CCOCC4)nc32)cn1` yielded a % of inhibition in experiment [1] of 95%.
`CNC(=O)Nc1ccc(-c2nc(N3CC4CCC(C3)O4)c3cnn(C4CCC5(CC4)OCCO5)c3n2)cc1` gave a % of inhibition in experiment [2] of 4%.
The molecule `Cc1cc([C@@H](C)Nc2ccccc2C(=O)O)c2nc(N3CCOCC3)cc(=O)n2c1` [AZD-6482] had a % of control in experiment [3] of 100%.
For the molecule `CN(C)CCOc1ccc(-c2nc(-c3ccncc3)c(-c3ccc4c(c3)CC/C4=N\O)[nH]2)cc1`, the % of control was determined as 30% in experiment [4] and 100% in experiment [5].
